Calls of active or inactive are those of the source.
Assays:
Caspase-3 = biological target: T1, Caspase-3 (Homo sapiens, UniProt P42574); test: inhibition of recombinant caspase-3 activity – biochemical, luminescence, set 2, selectivity assay for SENP protease inhibitor project, SAR follow-up (AID 588599); type: functional
T1 sequence (P42574 whole entry): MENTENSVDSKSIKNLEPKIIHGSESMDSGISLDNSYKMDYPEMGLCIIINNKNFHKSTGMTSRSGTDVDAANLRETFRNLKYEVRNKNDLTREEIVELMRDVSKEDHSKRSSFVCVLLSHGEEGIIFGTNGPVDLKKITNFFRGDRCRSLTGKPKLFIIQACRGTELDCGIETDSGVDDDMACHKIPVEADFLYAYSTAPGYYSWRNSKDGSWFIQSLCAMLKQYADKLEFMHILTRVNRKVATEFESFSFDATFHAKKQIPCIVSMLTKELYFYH

[1] = biological target: T2, Sentrin-specific protease 8 (Homo sapiens, UniProt Q96LD8); test: inhibition of sentrin protease 8 – biochemical, luminescence, set 2, SAR follow-up (AID 588601); type: functional
T2 sequence (Q96LD8 whole entry): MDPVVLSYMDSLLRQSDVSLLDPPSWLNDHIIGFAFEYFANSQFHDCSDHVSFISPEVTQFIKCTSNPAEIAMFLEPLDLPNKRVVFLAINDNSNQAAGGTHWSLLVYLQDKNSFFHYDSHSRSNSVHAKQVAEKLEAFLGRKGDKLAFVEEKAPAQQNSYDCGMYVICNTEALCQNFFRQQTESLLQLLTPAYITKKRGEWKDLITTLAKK

[2] = biological target: T3, Sentrin-specific protease 7 (Homo sapiens, UniProt Q9BQF6); test: inhibition of human SENP7 cleavage activity – biochemical, luminescence, set 2, SAR follow-up (AID 588600); type: functional
T3 sequence (Q9BQF6 whole entry): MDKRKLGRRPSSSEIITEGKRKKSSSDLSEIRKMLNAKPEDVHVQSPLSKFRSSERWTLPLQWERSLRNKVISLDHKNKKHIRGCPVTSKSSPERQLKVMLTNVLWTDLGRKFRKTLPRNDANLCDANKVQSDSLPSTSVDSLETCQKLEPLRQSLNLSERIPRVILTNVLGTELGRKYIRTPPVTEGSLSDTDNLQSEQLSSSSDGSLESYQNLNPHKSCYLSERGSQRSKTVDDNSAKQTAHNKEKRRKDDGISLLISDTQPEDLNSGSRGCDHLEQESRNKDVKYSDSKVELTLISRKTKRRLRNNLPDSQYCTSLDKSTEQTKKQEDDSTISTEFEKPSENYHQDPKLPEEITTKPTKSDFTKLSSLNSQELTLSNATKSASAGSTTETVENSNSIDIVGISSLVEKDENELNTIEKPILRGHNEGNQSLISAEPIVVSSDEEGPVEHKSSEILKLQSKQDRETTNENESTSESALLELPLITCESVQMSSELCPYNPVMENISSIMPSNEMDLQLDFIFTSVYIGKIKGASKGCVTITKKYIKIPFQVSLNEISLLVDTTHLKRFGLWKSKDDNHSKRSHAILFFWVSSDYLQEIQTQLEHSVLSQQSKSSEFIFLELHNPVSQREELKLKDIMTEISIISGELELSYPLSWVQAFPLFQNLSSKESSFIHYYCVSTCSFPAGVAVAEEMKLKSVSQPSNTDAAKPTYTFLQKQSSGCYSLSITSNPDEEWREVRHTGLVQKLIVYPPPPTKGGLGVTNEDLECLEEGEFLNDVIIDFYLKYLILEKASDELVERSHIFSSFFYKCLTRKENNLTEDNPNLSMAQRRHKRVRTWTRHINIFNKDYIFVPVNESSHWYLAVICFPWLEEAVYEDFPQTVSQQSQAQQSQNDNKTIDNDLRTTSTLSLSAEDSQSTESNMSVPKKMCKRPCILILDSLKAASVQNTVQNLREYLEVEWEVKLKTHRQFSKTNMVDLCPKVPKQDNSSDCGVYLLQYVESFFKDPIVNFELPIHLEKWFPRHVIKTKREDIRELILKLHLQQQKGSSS

[3] = biological target: T4, Sentrin-specific protease 6 (Homo sapiens, UniProt Q9GZR1); test: inhibition of human SENP6 catalytic domain – biochemical, luminescence, set 2, SAR follow-up (AID 588598); type: functional
T4 sequence (Q9GZR1 whole entry): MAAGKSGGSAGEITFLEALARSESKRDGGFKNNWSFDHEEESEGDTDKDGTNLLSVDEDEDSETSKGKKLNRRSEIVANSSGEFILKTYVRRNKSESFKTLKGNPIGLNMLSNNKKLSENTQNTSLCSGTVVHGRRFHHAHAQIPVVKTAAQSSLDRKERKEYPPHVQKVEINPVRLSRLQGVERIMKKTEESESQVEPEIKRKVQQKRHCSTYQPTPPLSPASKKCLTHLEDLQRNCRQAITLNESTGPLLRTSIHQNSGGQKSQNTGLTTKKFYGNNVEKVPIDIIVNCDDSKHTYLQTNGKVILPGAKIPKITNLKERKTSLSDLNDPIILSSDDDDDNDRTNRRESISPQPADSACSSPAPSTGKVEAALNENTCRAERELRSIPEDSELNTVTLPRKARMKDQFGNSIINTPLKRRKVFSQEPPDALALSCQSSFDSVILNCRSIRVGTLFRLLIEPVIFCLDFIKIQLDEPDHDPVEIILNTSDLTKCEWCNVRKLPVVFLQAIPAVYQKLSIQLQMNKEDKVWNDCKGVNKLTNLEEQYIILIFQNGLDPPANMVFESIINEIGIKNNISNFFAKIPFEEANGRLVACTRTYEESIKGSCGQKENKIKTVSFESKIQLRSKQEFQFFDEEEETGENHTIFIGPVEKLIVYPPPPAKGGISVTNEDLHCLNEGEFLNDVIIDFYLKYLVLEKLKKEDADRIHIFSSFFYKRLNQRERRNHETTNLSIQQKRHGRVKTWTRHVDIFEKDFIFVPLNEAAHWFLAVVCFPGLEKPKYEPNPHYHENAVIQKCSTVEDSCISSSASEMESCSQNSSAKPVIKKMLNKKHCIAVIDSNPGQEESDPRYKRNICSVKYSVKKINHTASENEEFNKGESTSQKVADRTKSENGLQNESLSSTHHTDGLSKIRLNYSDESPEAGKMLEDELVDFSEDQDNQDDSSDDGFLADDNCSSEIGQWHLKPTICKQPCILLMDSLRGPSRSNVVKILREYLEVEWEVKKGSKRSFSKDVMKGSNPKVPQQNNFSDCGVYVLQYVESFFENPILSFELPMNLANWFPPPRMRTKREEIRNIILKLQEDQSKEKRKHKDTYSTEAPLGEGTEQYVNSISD

[4] = biological target: T5, Heat shock factor protein 1 (Mus musculus, UniProt P38532); test: decrease of HSF1-responsive luciferase luminescence – cell-based, NIH3T3, dose retest, confirmation (AID 2382); type: functional;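 note: NIH3T3 fibroblasts with HSF1-driven luciferase reporter stressed by proteasome inhibitor MG132; luminescence from HSF1-driven luciferase expression after 8 hours of MG132 stress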
T5 sequence (P38532 whole entry): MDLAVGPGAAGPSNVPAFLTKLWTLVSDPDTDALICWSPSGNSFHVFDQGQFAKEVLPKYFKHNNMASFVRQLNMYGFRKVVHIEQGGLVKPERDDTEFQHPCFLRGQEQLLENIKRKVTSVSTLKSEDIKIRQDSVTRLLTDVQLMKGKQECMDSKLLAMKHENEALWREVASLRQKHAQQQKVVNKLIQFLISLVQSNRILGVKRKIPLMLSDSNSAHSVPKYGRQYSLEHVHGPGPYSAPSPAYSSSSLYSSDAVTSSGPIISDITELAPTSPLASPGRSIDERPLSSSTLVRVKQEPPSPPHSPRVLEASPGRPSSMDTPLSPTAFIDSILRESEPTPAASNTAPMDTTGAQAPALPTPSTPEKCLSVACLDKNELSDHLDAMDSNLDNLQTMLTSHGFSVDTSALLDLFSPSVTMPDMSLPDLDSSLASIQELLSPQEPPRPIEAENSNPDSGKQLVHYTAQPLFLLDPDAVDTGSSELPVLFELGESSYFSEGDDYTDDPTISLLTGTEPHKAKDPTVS

[5] = Trypanosoma cruzi growth suppression in host cells – NIH3T3 host cells, beta-gal luminescence, confirmation (AID 2044); type: functional, cell-based;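 note: intracellular parasites grown in NIH/3T3 mouse fibroblasts as host cells; luminescent beta-galactosidase reporter signal from transgenic T. cruzi replicating inside host cells; inhibitors lower the luminescence signal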
[6] = NIH3T3 cell viability loss – ATP luminescence, mouse fibroblasts, counter-screen, dose response (AID 2010); type: functional, cell-based;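 note: cells exposed to compound for about 90 hours before reading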
CHO = CHO cell viability loss, potency – luminescence, cytotoxicity control for TLR9-MyD88 binding inhibitor project, dose response (AID 588339); type: functional, cell-based, hamster; details: Cricetulus griseus;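 note: CHO cells stably coexpressing TLR9 and MyD88 fusions from primary screen; compound exposure lasted 48 hours before viability readout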
[7] = biological target: T6, Replicative DNA helicase DnaB (Mycobacterium tuberculosis, UniProt P9WMR3); test: DnaB intein splicing inhibitors, dose response, biochemical, cell-free fluorescence (AID 449749); type: functional
T6 sequence (P9WMR3 whole entry): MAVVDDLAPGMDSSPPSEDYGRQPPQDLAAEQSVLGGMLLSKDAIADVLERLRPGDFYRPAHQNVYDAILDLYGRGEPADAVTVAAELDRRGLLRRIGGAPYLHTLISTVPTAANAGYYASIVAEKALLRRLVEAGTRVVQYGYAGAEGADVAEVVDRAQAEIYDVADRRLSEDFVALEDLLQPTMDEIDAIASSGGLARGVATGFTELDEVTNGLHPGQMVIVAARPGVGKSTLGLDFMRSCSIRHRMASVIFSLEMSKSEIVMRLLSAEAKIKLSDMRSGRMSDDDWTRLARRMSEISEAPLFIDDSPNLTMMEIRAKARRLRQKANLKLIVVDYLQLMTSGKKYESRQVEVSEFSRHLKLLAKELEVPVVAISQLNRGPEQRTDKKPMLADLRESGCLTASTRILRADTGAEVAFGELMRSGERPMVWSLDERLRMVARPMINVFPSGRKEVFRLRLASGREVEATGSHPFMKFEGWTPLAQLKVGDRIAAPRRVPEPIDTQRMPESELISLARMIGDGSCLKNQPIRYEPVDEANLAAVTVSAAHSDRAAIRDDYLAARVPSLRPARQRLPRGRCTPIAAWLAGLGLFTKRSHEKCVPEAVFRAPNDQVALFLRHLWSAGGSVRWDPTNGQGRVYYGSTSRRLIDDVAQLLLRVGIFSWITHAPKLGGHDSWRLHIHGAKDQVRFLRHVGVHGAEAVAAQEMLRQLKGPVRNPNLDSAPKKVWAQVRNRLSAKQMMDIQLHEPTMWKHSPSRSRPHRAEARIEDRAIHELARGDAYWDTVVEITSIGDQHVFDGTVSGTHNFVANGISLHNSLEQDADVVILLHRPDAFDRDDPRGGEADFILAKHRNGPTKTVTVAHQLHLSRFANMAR

Protein RecA = biological target: T7, Protein RecA (Mycobacterium tuberculosis, UniProt P9WHJ3); test: Fluorescence Cell-Free Homogeneous Dose Retest to Identify Inhibitors of RecA-Intein Splicing Activity. [Related pubchem assays (depositor defined):AID2097, AID2223, AID489010, AID492950]; type: functional
T7 sequence (P9WHJ3 whole entry): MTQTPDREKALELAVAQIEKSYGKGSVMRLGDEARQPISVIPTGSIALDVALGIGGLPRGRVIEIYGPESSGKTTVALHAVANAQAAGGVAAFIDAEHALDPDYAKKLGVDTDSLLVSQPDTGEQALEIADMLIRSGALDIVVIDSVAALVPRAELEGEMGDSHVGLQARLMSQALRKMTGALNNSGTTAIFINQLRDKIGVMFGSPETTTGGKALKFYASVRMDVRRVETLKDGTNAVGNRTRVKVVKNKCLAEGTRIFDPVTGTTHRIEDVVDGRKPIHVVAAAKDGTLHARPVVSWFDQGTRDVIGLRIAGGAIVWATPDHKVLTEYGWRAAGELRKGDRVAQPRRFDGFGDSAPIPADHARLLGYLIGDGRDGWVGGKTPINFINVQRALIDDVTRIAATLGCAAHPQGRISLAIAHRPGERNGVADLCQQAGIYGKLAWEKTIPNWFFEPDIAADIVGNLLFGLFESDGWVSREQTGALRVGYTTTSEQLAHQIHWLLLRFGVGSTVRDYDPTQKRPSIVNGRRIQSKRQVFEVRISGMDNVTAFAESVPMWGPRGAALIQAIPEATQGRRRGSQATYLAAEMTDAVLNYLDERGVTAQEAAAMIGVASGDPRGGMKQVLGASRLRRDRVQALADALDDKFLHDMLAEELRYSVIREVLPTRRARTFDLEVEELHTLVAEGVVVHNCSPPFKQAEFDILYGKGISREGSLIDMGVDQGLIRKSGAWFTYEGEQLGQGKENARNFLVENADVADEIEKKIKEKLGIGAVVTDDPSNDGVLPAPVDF

Beta Lactamase = Beta Lactamase (Pseudomonas aeruginosa, UniProt Q932Y6); test: BLA reporter interference, concentration series – BLA reporter cells, FRET fluorescence, artefact control for TLR9-MyD88 binding inhibitor project, dose response (AID 588341); type: cell-based;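 note: cell based assay in CHO-K1 cells stably expressing beta-lactamase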
Beta Lactamase, sequence (Q932Y6 whole entry): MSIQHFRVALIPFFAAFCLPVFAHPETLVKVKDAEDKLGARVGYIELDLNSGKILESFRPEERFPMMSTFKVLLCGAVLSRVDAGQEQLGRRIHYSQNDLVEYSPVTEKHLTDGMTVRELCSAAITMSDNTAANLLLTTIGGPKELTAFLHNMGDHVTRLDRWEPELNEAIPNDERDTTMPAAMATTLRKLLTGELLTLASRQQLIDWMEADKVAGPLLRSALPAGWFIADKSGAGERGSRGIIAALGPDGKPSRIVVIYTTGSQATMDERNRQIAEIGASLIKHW

Paired box protein Pax-8 = Paired box protein Pax-8 (Homo sapiens, UniProt Q06710); test: PAX8 transcriptional activity inhibition in RMG-I – RMG-I cells, luciferase, cherry-pick, dose response (AID 687027); type: functional, cell-based;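 note: luciferase reporter driven by Pax8 target thyroperoxidase promoter measured by SteadyGlo luminescence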
Paired box protein Pax-8, sequence (Q06710 whole entry): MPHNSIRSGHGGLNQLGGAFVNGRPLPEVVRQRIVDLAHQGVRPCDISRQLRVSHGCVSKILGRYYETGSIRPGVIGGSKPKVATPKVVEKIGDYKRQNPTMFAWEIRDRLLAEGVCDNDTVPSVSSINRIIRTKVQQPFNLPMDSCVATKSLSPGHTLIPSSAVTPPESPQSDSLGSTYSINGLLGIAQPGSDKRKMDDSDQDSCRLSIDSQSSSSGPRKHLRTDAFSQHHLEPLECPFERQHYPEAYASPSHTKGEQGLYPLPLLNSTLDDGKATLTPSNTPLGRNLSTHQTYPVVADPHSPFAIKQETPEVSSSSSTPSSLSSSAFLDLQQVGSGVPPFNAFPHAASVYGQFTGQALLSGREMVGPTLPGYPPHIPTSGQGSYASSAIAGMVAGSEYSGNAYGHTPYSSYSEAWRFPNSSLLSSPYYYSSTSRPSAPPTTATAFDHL

HEK293 [8] = test: HEK293T cell viability loss, resazurin readout – resazurin fluorescence, cytotoxicity control for NF-kB activator project, SAR follow-up (AID 493251); type: functional, cell-based; details: Homo sapiens
Jurkat = test: SAR Analysis of small molecule inhibitors of both B-cell and T-cell specific antigen receptor-induced NF-kB activation in a Jurkat cell line using a luminescence assay. [Related pubchem assays (depositor defined):AID435003, AID435022, AID465, AID489029]; type: functional, cell-based; details: Homo sapiens
HEK293 [9] = test: SAR Analysis of small molecule inhibitors of both B-cell and T-cell specific antigen receptor-induced NF-kB activation in a HEK-293T cell line using a luminescence assay. [Related pubchem assays (depositor defined):AID435003, AID435022, AID465, AID489019, AID489029]; type: functional, cell-based; details: Homo sapiens

SMILES: CC(=O)Nc1ccc2nc(NC(=O)c3n[nH]c4ccccc34)sc2c1
- IC50 (Caspase-3): 4.41 µM (active)
- IC50 [1]: 40.3 µM (active)
- IC50 [2]: > 99 µM (inactive)
- IC50 [3]: > 99 µM (inactive)

SMILES: Cn1c(=O)c([N+](=O)[O-])c(Cl)c2ccccc21
- EC50 [4]: 4.3 µM (active)
- EC50 [5]: 1.87 µM (active)
- EC50 [6]: 3.97 µM (active)
- IC50 (CHO): 1.18 µM (active)
- AC50 [7]: 5.18 µM (active)
- EC50 (Protein RecA): 4.25 µM (active)
- IC50 (Beta Lactamase): 17.8 µM (inactive)
- AC50 (Paired box protein Pax-8): 6.65 µM (active)

SMILES: Cc1ccc2cccc(N)c2n1
- IC50 (HEK293 [8]): > 80 µM (inactive)
- IC50 (Jurkat): > 79 µM (inactive)
- IC50 (HEK293 [9]): > 79 µM (inactive)

Source: ChEMBL document CHEMBL1201862, “PubChem BioAssay data set” (2004)
